In patent US10233188B2, “CDK2/4/6 inhibitors” (priority 2016, dated 2019) one finds Ki data, which are given here for 16 compounds.

For orientation: Ki means a dissociation constant, usually derived from enzyme kinetics or from competition with a known ligand. The low end stands for a stronger hold on the target, the high end for a looser hold on the target.

Test [1] has as its target CDK6/Cyclin D1 (Homo sapiens (Human), UniProt Q00534). Put plainly: biochemical. Conditions: CDK6_Ki (nM), non-phosphorylated CDK6/Cyclin D1, 2 mM ATP, Morrison fit.
Test [2] concerns the target CDK2/Cyclin E1 (Homo sapiens (Human), UniProt P24941). Put plainly: biochemical. Conditions: CDK2_Ki (nM), phosphorylated CDK2/Cyclin E1, 150 μM ATP, Morrison tight-binding fit.
Protocol: The assay was initiated with the addition of ATP, following a fifteen minutes pre-incubation of enzyme and inhibitor at room temperature in the reaction mixture. The reaction was stopped after 45 minutes at room temperature by the addition of 50 μL of 80 mM EDTA, pH 7.5.

Chain of CDK6/Cyclin D1 (Q00534 whole entry): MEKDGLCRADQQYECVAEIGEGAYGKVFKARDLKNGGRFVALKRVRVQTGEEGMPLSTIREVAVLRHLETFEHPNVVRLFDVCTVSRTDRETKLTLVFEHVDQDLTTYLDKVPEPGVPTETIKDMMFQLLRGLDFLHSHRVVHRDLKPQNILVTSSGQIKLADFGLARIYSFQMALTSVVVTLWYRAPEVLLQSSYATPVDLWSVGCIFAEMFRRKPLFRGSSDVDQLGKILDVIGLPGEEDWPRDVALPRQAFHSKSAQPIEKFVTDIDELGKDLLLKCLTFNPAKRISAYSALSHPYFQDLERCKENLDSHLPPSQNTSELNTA
Chain of CDK6/Cyclin D1 (P24385 whole entry partner): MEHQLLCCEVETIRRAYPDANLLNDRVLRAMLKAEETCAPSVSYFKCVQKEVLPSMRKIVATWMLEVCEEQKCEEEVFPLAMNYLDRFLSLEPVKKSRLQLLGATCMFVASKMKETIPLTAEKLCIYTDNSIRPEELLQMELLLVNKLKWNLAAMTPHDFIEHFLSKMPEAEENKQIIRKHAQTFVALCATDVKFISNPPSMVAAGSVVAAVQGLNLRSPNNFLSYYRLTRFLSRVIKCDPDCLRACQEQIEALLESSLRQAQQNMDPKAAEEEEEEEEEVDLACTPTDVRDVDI

With `CCS(=O)(=O)N1CCC(Nc2ncc3cc(C)c(=O)n([C@H]4CCC[C@]4(C)O)c3n2)CC1` (single isomer, unassigned) [Example 111, (+)-2-{[1-(ethylsulfonyl)piperidin-4-yl]amino}-8-[(1R*,2R*)-2-hydroxy-2-methylcyclopentyl]-6-methylpyrido[2,3-d]pyrimidin-7(8H)-one], the figures for the Ki in test [1] and in test [2] were 4.9 nM and 2.14 nM, respectively.

On to `Cc1cc2cnc(NC3CCN(S(=O)(=O)C4CC4)CC3)nc2n([C@@H]2CCC[C@@]2(C)O)c1=O` (single isomer, unassigned) [Example 112, (−)-2-{[1-(cyclopropylsulfonyl)piperidin-4-yl]amino}-8-[(1R*,2R*)-2-hydroxy-2-methylcyclopentyl]-6-methylpyrido[2,3-d]pyrimidin-7(8H)-one], for which the Ki in test [1] came to 1.24 nM; in test [2], 0.12 nM.

As to `Cc1cc2cnc(NC3CCN(S(=O)(=O)C4CC4)CC3)nc2n([C@H]2CCC[C@]2(C)O)c1=O` (single isomer, unassigned) [Example 113, (+)-2-{[1-(cyclopropylsulfonyl)piperidin-4-yl]amino}-8-[(1R*,2R*)-2-hydroxy-2-methylcyclopentyl]-6-methylpyrido[2,3-d]pyrimidin-7(8H)-one], the Ki in test [1] is 4.15 nM; in test [2] it was 1.99 nM.

For `COCCS(=O)(=O)N1CCC(Nc2ncc3cc(C)c(=O)n([C@@H]4CCC[C@@]4(C)O)c3n2)CC1` (single isomer, unassigned) [Example 114, (−)-8-[(1R*,2R*)-2-hydroxy-2-methylcyclopentyl]-2-({1-[(2-methoxyethyl)sulfonyl]piperidin-4-yl}amino)-6-methylpyrido[2,3-d]pyrimidin-7(8H)-one], the Ki in test [1] was 0.15 nM; in test [2], 0.17 nM.

On to `COCCS(=O)(=O)N1CCC(Nc2ncc3cc(C)c(=O)n([C@H]4CCC[C@]4(C)O)c3n2)CC1` (single isomer, unassigned) [Example 115, (+)-8-[(1R*,2R*)-2-hydroxy-2-methylcyclopentyl]-2-({1-[(2-methoxyethyl)sulfonyl]piperidin-4-yl}amino)-6-methylpyrido[2,3-d]pyrimidin-7(8H)-one], for which the Ki in test [1] came to 3.17 nM; in test [2] it was 2.39 nM.

Turning to `Cc1cc2cnc(NC3CCN(S(=O)(=O)CC4CC4)CC3)nc2n([C@@H]2CCC[C@@]2(C)O)c1=O` (single isomer, unassigned) [Example 116, (−)-2-({1-[(cyclopropylmethyl)sulfonyl]piperidin-4-yl}amino)-8-[(1R*,2R*)-2-hydroxy-2-methylcyclopentyl]-6-methylpyrido[2,3-d]pyrimidin-7(8H)-one], the Ki in test [1] was found to be 0.21 nM; in test [2] it was 0.15 nM.

On to `Cc1cc2cnc(NC3CCN(S(=O)(=O)CC4CC4)CC3)nc2n([C@H]2CCC[C@]2(C)O)c1=O` (single isomer, unassigned) [Example 117, (+)-2-({1-[(cyclopropylmethyl)sulfonyl]piperidin-4-yl}amino)-8-[(1R*,2R*)-2-hydroxy-2-methylcyclopentyl]-6-methylpyrido[2,3-d]pyrimidin-7(8H)-one], for which the Ki came to 2.46 nM in test [1] and 1.74 nM in test [2].

Take `Cc1cc2cnc(NC3CCN(S(=O)(=O)CC(F)(F)F)CC3)nc2n([C@@H]2CCC[C@@]2(C)O)c1=O` (single isomer, unassigned) [Example 118, (−)-8-[(1R*,2R*)-2-hydroxy-2-methylcyclopentyl]-6-methyl-2-({1-[(2,2,2-trifluoroethyl)sulfonyl]piperidin-4-yl}amino)pyrido[2,3-d]pyrimidin-7(8H)-one]: the Ki in test [1] worked out at 4.36 nM; in test [2] it was 0.34 nM.

For `Cc1cc2cnc(NC3CCN(S(=O)(=O)CC(F)(F)F)CC3)nc2n([C@H]2CCC[C@]2(C)O)c1=O` (single isomer, unassigned) [Example 119, (+)-8-[(1R*,2R*)-2-hydroxy-2-methylcyclopentyl]-6-methyl-2-({1-[(2,2,2-trifluoroethyl)sulfonyl]piperidin-4-yl}amino)pyrido[2,3-d]pyrimidin-7(8H)-one], the Ki worked out at 4.15 nM in test [1] and 2.87 nM in test [2].

Take `C[C@]1(O)CCC[C@@H]1n1c(=O)c(CC#N)cc2cnc(NC3CCN(S(C)(=O)=O)CC3)nc21` (single isomer, unassigned) [Example 121, (+)-(8-[(1R*,2R*)-2-hydroxy-2-methylcyclopentyl]-2-{[1-(methylsulfonyl)piperidin-4-yl]amino}-7-oxo-7,8-dihydropyrido[2,3-d]pyrimidin-6-yl)acetonitrile]: the Ki stood at 0.82 nM in test [1] and 2.15 nM in test [2].

Take `C[C@]1(O)CCC[C@@H]1n1c(=O)c(CCO)cc2cnc(NC3CCN(S(C)(=O)=O)CC3)nc21` (single isomer, unassigned) [Example 123, (+)-6-(2-hydroxyethyl)-8-[(1R*,2R*)-2-hydroxy-2-methylcyclopentyl]-2-{[1-(methylsulfonyl)piperidin-4-yl]amino}pyrido[2,3-d]pyrimidin-7(8H)-one]: the Ki amounted to 6.14 nM in test [1] and 0.76 nM in test [2].

In the case of `CNS(=O)(=O)N1CCC(Nc2ncc3cc(F)c(=O)n([C@@H]4CCC[C@@]4(C)O)c3n2)CC1` (single isomer, unassigned) [Example 124, (−)-4-({6-fluoro-8-[(1R*,2R*)-2-hydroxy-2-methylcyclopentyl]-7-oxo-7,8-dihydropyrido[2,3-d]pyrimidin-2-yl}amino)-N-methylpiperidine-1-sulfonamide], the Ki was determined as 3.84 nM in test [1] and 0.69 nM in test [2].

Take `CNS(=O)(=O)N1CCC(Nc2ncc3cc(F)c(=O)n([C@H]4CCC[C@]4(C)O)c3n2)CC1` (single isomer, unassigned) [Example 125, (+)-4-({6-fluoro-8-[(1R*,2R*)-2-hydroxy-2-methylcyclopentyl]-7-oxo-7,8-dihydropyrido[2,3-d]pyrimidin-2-yl}amino)-N-methylpiperidine-1-sulfonamide]: the Ki in test [1] worked out at 36.6 nM; in test [2] it was 6.21 nM.

With `CNS(=O)(=O)N1CCC(Nc2ncc3cc(Cl)c(=O)n([C@@H]4CCC[C@@]4(C)O)c3n2)CC1` (single isomer, unassigned) [Example 126, (−)-4-({6-chloro-8-[(1R*,2R*)-2-hydroxy-2-methylcyclopentyl]-7-oxo-7,8-dihydropyrido[2,3-d]pyrimidin-2-yl}amino)-N-methylpiperidine-1-sulfonamide], the Ki in test [1] came out at 0.96 nM; in test [2] it was 0.2 nM.

`CNS(=O)(=O)N1CCC(Nc2ncc3cc(Cl)c(=O)n([C@H]4CCC[C@]4(C)O)c3n2)CC1` (single isomer, unassigned) [Example 127, (+)-4-({6-chloro-8-[(1R*,2R*)-2-hydroxy-2-methylcyclopentyl]-7-oxo-7,8-dihydropyrido[2,3-d]pyrimidin-2-yl}amino)-N-methylpiperidine-1-sulfonamide]: the Ki in test [1] was 12.6 nM; in test [2], 3.46 nM.

On to `C[C@@]1(O)CCC[C@H]1n1c(=O)c(Cl)cc2cnc(NC3CCN(S(N)(=O)=O)CC3)nc21` (single isomer, unassigned) [Example 128, (−)-4-({6-chloro-8-[(1R*,2R*)-2-hydroxy-2-methylcyclopentyl]-7-oxo-7,8-dihydropyrido[2,3-d]pyrimidin-2-yl}amino)piperidine-1-sulfonamide], for which the Ki worked out at 0.53 nM in test [1] and 0.12 nM in test [2].
